Assay results from ChEMBL document CHEMBL5620433, “Design and synthesis of new 1,2,3-triazoles derived from eugenol and analogues with in vitro and in vivo activity against Trypanosoma cruzi” (Eur J Med Chem, 2023).
Calls of active or inactive are those of the source. No cut-off for these calls is given here.

Columns and labels:
[1] = tested on: Trypanosoma cruzi; test: Antitrypanosomal activity against epimastigote form of Trypanosoma cruzi Y assessed as inhibition of parasite proliferation incubated for 72 hrs by resazurin dye based analysis; assay type: functional, organism-based
[2] = biological target: Cruzipain (Trypanosoma cruzi) (UniProt P25779); test: Inhibition of recombinant Trypanosoma cruzi Cruzain using Z-FR-AMC as substrate at 100 uM preincubated with enzyme for 10 mins and measured for 5 mins by fluorescence based analysis; conditions: time 15.0 min
[3] = (§1) Cytotoxicity against rat H9c2 cells assessed as reduction in cell viability measured after 72 hrs by resazurin due based analysis; assay type: toxicity; conditions: rat, H9c2 cells
[4] = biological target: Cruzipain (Trypanosoma cruzi) (UniProt P25779); test: Inhibition of recombinant Trypanosoma cruzi Cruzain using Z-FR-AMC as substrate at 100 uM measured for 5 mins by fluorescence based analysis
[5] = Selectivity index, ratio of CC50 for cytotoxicity against rat H9c2 cells to IC50 for antitrypanosomal activity against epimastigote form of Trypanosoma cruzi Y; assay type: toxicity, cell-based; conditions: read-out: Ratio IC50
[6] = tested on: H9c2; test: as §1; assay type: toxicity; conditions: h9c2
[7] = tested on: Mus musculus; test: Reduction in cardiac inflammation in Swiss mouse infected with trypomastigote form of Trypanosoma cruzi Y assessed as reduction in inflammatory nuclei at 10 to 100 mg/kg, po administered via gavage for 7 days from day 5 post-infection by Hematoxylin-Eosin staining based microscopy; assay type: functional, organism-based; conditions: dose 10-100 mg/kg, time 7.0 day
[8] = tested on: Mus musculus; test: Reduction in plasma IgG1 level in Swiss mouse infected with trypomastigote form of Trypanosoma cruzi Y at 100 mg/kg, po administered via gavage for 7 days from day 5 post-infection by ELISA; assay type: functional, organism-based; conditions: time 7.0 day
[9] = Toxicity in po dosed Swiss mouse infected with trypomastigote form of Trypanosoma cruzi Y assessed as mortality administered via gavage for 7 days from day 5 post-infection and measured on day 13 post-infection; assay type: organism-based; conditions: in vivo, 192 h, time 8 day
[10] = Toxicity in Swiss mouse infected with trypomastigote form of Trypanosoma cruzi Y assessed as increase in weight gain at 10 to 100 mg/kg, po administered via gavage for 7 days from day 5 post-infection; assay type: organism-based; conditions: in vivo, 168 h, dose 10-100 mg/kg, time 7 day
[11] = tested on: Mus musculus; test: Reduction in plasma IgG2 level in Swiss mouse infected with trypomastigote form of Trypanosoma cruzi Y at 10 to 50 mg/kg, po administered via gavage for 7 days from day 5 post-infection by ELISA; assay type: functional, organism-based; conditions: dose 10-50 mg/kg, time 7.0 day
[12] = tested on: Trypanosoma cruzi; test: Antitrypanosomal activity against trypomastigote form of Trypanosoma cruzi Y assessed as inhibition of parasite viability incubated for 24 hrs by light microscopy; assay type: functional, organism-based
[13] = Toxicity in po dosed Swiss mouse infected with trypomastigote form of Trypanosoma cruzi Y assessed as fur alteration administered via gavage for 7 days from day 5 post-infection and measured on day 13 post-infection; assay type: organism-based; conditions: in vivo, 192 h, time 8 day
[14] = Toxicity in po dosed Swiss mouse infected with trypomastigote form of Trypanosoma cruzi Y assessed as diarrhea administered via gavage for 7 days from day 5 post-infection and measured on day 13 post-infection; assay type: organism-based; conditions: in vivo, 192 h, time 8 day
[15] = tested on: Mus musculus; test: Reduction in plasma IgG1 level in Swiss mouse infected with trypomastigote form of Trypanosoma cruzi Y at 10 to 50 mg/kg, po administered via gavage for 7 days from day 5 post-infection by ELISA; assay type: functional, organism-based; conditions: dose 10-50 mg/kg, time 7.0 day
[16] = Toxicity in po dosed Swiss mouse infected with trypomastigote form of Trypanosoma cruzi Y assessed as apathy administered via gavage for 7 days from day 5 post-infection and measured on day 13 post-infection; assay type: organism-based; conditions: in vivo, 192 h, time 8 day
[17] = tested on: Mus musculus; test: Reduction in plasma IgG2 level in Swiss mouse infected with trypomastigote form of Trypanosoma cruzi Y at 100 mg/kg, po administered via gavage for 7 days from day 5 post-infection by ELISA; assay type: functional, organism-based; conditions: time 7.0 day
[18] = tested on: Trypanosoma cruzi; test: Anti-trypanosomal activity against trypomastigote form of Trypanosoma cruzi Y infected in Swiss mouse assessed as reduction in parasitemia at 50 mg/kg, po administered via gavage for 7 days from day 5 post-infection; assay type: functional, organism-based; conditions: time 7.0 day
[19] = Hepatotoxicity in Swiss mouse infected with trypomastigote form of Trypanosoma cruzi Y assessed as plasma alanine aminotransferase level at 50 to 100 mg/kg, po administered via gavage for 7 days from day 5 post-infection by spectrophotometry; assay type: toxicity, organism-based; conditions: in vivo, 168 h, dose 50-100 mg/kg, time 7 day
[20] = tested on: Mus musculus; test: Reduction in plasma total IgG level in Swiss mouse infected with trypomastigote form of Trypanosoma cruzi Y at 100 mg/kg, po administered via gavage for 7 days from day 5 post-infection by ELISA; assay type: functional, organism-based; conditions: time 7.0 day
[21] = Toxicity in Swiss mouse infected with trypomastigote form of Trypanosoma cruzi Y assessed as collateral effects at 10 to 100 mg/kg, po administered via gavage for 7 days from day 5 post-infection; assay type: organism-based; conditions: in vivo, 168 h, dose 10-100 mg/kg, time 7 day
[22] = Genotoxicity in rat H9c2 cells assessed as induction of DNA damage at 10 uM incubated for 72 hrs by gel electrophoresis analysis; assay type: toxicity, cell-based; conditions: h9c2, 72 h
[23] = tested on: Trypanosoma cruzi; test: Anti-trypanosomal activity against trypomastigote form of Trypanosoma cruzi Y infected in Swiss mouse assessed as reduction in parasitemia at 100 mg/kg, po administered via gavage for 7 days from day 5 post-infection; assay type: functional; conditions: 168 h, time 7 day
[24] = tested on: Mus musculus; test: Reduction in plasma total IgG level in Swiss mouse infected with trypomastigote form of Trypanosoma cruzi Y at 10 to 50 mg/kg, po administered via gavage for 7 days from day 5 post-infection by ELISA; assay type: functional, organism-based; conditions: dose 10-50 mg/kg, time 7.0 day
[25] = Hepatotoxicity in Swiss mouse infected with trypomastigote form of Trypanosoma cruzi Y assessed as plasma aspartate aminotransferase level at 50 to 100 mg/kg, po administered via gavage for 7 days from day 5 post-infection by spectrophotometry; assay type: toxicity, organism-based; conditions: in vivo, 168 h, dose 50-100 mg/kg, time 7 day
[26] = tested on: Trypanosoma cruzi; test: Anti-trypanosomal activity against trypomastigote form of Trypanosoma cruzi Y infected in Swiss mouse assessed as reduction in parasitemia at 100 mg/kg, po administered via gavage for 2 days from day 5 post-infection; assay type: functional; conditions: 48 h, time 2 day

Cruzipain (Trypanosoma cruzi), sequence (P25779 123-467 limits assumed): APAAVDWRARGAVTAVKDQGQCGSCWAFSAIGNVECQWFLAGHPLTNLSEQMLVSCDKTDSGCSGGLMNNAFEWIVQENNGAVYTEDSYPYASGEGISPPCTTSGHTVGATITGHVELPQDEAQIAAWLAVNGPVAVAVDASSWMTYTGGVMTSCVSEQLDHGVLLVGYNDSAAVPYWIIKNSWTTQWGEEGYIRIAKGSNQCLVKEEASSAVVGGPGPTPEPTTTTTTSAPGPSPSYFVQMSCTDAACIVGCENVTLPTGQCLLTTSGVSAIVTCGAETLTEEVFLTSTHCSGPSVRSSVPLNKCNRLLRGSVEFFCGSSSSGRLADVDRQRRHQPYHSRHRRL

SMILES	IC50 [1] [µM]	inhibition [2] [%]	IC50 at 72 h [3] [µM]	inhibition [4] [%]	selectivity ratio [5]	other results
COc1ccccc1OCC(O)Cn1cc(COc2ccc([N+](=O)[O-])cc2)nn1 (racemic)	60.8	7.2	134	7.2	2.1	
C=CCc1ccc(OCC(O)Cn2cc(COc3ccc(Cl)cc3)nn2)c(OC)c1 (racemic)	37	7.2	58.1	7.2	1.5	
COc1ccc(OCc2cn(CC(O)COc3ccccc3OC)nn2)cc1 (racemic)	113	7.2	469	7.2	4.1	
C=CCc1ccc(OCC(O)Cn2cc(COc3ccc(OC)cc3)nn2)c(OC)c1 (racemic)	190	7.2		7.2	8.9	IC50 [6]: 1690 µM
CCCc1ccc(OCC(Cn2cc(-c3ccccc3)nn2)OCc2ccccc2)c(OC)c1 (racemic)	335	7.2	> 400	7.2	> 1.1	
CCCc1ccc(OCC(O)Cn2cc(COc3ccc([N+](=O)[O-])cc3)nn2)c(OC)c1 (racemic)	7.3	24	568	24	77.6	inhibition [7]: Active; inhibition [8]: Active; Activity [9]: Non-Toxic; Activity [10]: Toxic; inhibition [11]: inactive; IC50 [12]: 8.41 µM; Activity [13]: Non-Toxic; Activity [14]: Non-Toxic; inhibition [15]: inactive; Activity [16]: Non-Toxic; inhibition [17]: Active; Activity [18]: Active; Activity [19]: Non-Toxic; inhibition [20]: Active; Activity [21]: Non-Toxic; Activity [22]: Non-Toxic; inhibition in vivo at 100 mg/kg [23]: 99.4%; inhibition [24]: inactive; Activity [25]: Non-Toxic
CCCc1ccc(OCC(O)Cn2ccnn2)c(OC)c1 (racemic)	212	7.2	743	7.2	3.5	
CCCc1ccc(OCC(O)Cn2cc(COc3ccccc3)nn2)c(OC)c1 (racemic)	75.8	7.2	211	7.2	2.7	
C=CCc1ccc(OCC(O)Cn2cc(COc3ccc([N+](=O)[O-])cc3)nn2)c(OC)c1 (racemic)	149	7.2	323	7.2	2.1	
COc1ccccc1OCC(O)Cn1cc(COc2ccccc2)nn1 (racemic)	112	7.2	437	7.2	3.8	
O=C(Cn1ccnc1[N+](=O)[O-])NCc1ccccc1 [BENZNIDAZOLE]	21.5				78.4	inhibition [8]: Active; IC50 [12]: 12.7 µM; inhibition [17]: Active; IC50 [6]: 1690 µM; inhibition [20]: Active; inhibition in vivo at 100 mg/kg [26]: 100%
